Experimental findings from patent US11072619B2, “Pyrazole[1,5-a] pyrimidine derivatives as kinase JAK inhibitors” (CELON PHARMA S.A., priority 2017, dated 2021) are described below.

One assay deals with Recombinant kinase JAK2 (Homo sapiens (Human), UniProt O60674). Kind of assay: In vitro JAK kinase inhibition assay (ADP-Glo), JAK2. The settings on record: 30 μM ATP, peptide IGF-1Rtide, averaged. The assay is classed as biochemical. As for the experimental part:
In Vitro JAK Kinase Inhibition Assay
The effects of the compounds of the invention were analysed in vitro using kinase JAK inhibition assay described below.
Tested compounds were dissolved in 100% DMSO, and obtained stock solutions were serially diluted in the reaction buffer (50 mM Tris pH 7.5, 10 mM MgCl2, 0.25 mM EGTA, 0.1 mM Na3VO4, 0.01% Triton X-100, 2.5 mM DTT). Recombinant kinases JAK1 (ProQinase), JAK2, or JAK3 (Carna Biosciences) were diluted in the dilution buffer (50 mM Tris-HCl pH 7.5, 150 mM NaCl, 10% glycerol, 0.05% Triton X-100, 1 mM DTT) to the final concentration 3 ng/μL (JAK1), 0.1 ng/μL (JAK2), or 0.2 ng/μL (JAK3). 5 μL of obtained solution of the compounds and 5 μL of the solution of respective kinases were added to the well of a 96-well plate. To initiate interaction between tested compounds and an enzyme, the plate was incubated for 10 minutes at 25° C. in a Plate-Thermo-Shaker with orbital stirring at 400 rpm. Wells of a negative control contained all reagents as mentioned above with the exception of tested compounds and kinase, and wells of a positive controls contained all reagents as mentioned above with the exception of tested compounds. […] Then the plate was incubated for 1 hour at 25° C. in a Plate-Thermo-Shaker, with orbital stirring at 400 rpm. Detection of ADP formed in the enzymatic reaction was then performed using ADP-Glo Kinase Assay kit (Promega). For this purpose, to the well of the 96-well plate 25 μL of ADP-Glo Reagent were added, and the plate was incubated for 40 minutes at 25° C. in a Plate-Thermo-Shaker with orbital stirring at 400 rpm. Then to the well of the 96-well plate 50 μL of Kinase Detection Reagent were added and the plate was incubated for 30 minutes at 25° C. in a Plate-Thermo-Shaker with orbital stirring at 400 rpm. After incubation, luminescence intensity was measured using Victor×Light luminometer (Perkin Elmer, Inc.).
On the basis of luminescence measurement in wells containing tested compounds at various concentrations and in control wells, IC50 values were determined. These values were determined with Graph Pad software v. 5.03, by fitting points of the curve using non-linear regression method. Each compound was tested in at least 6 repetitions (6 wells) on two 96-well plates, using at least 3 wells of each control.
(In ADP-Glo the light output rises with the ADP produced.)

Assay [1] deals with INFγ secreted by lymphocytes T. Kind of assay: Inhibition of INFγ production by lymphocytes T in vitro. The assay is classed as cell-based. The settings on record: Lymphocyte, 48 hours, human CD4+ lymphocytes T; for inhibition at 0.01 µM: 10 nM; for inhibition at 0.1 µM: 100 nM; for inhibition at 1 µM: 1000 nM. As for the experimental part: (§1) Assay for Inhibition of TNFα and INFγ Production by Lymphocytes T In Vitro
(§2) The activity of the compounds of the invention was tested using in vitro assay described below.
(§3) Tested compounds were dissolved in 100% DMSO, and obtained stock solutions were serially diluted with OptiMEM medium (Reduced Serum Medium-Thermo Fisher Scientific). Lymhocytes were isolated from leukocyte top coat layer obtained from human peripheral blood. Isolation of peripheral blood mononuclear cells was performed using Ficoll-Paque+Leucosept gradient method, with lymphocytes isolation using CD4+ T Cell Isolation Kit, and activation using T Cell Activation/Expansion Kit (Miltenyi Biotec). Isolated cells in culture medium (90% RPMI 1640+10% FBS) were sived on 12-well plates at 450 μL/well, 300 thousands/well, and 50 μL of prepared 10× stock solutions of tested compounds were added. After 48 hours supernatant was collected for determination of the level of secreted cytokines. Before determination, cells were centrifuged at 1000 g, 10 min. Determination was performed with flow cytometer FACS Calibur using LEGENDplex Human Th cytokine kit. Results are presented in Table 3 as a percentage of inhibition of TNFα i INFγ cytokines secreted by lymphocytes T with reference to control cells.

Assay [2] deals with STAT6 protein phosphorylation in TF-1 cells. Kind of assay: STAT6 phosphorylation inhibition in vitro in TF-1 cells with IL-4. The assay is classed as cell-based. The settings on record: Homo sapiens, IL-4 20 ng/mL, 1 hour, Western blot densitometry. As for the experimental part: Assay of STAT6 Phosphorylation Inhibition In Vitro
as §2
Tested compounds were dissolved in 100% DMSO, and obtained stock solutions were serially in OptiMEM medium (Reduced Serum Medium-Thermo Fisher Scientific). TF-1 cells (DSMZ no.: ACC 334) in culture medium (80% RPMI 1640+20% FBS) in the presence of IL-4 at 20 ng/mL were sieved on 12-well plates at 900 μl/well, 700 thousands of cells/well. To a well of the 12-well plate 100 μL of obtained 10× solution of the compounds were added. Cells on 12-well plates were incubated with tested compounds for 1 hour at 37° C., 5% CO2. Subsequently the cells were washed with PBS, lysed in RIPA buffer added with EDTA, proteases and phosphatases inhibitors, and incubated for 5 min on ice. Protein concentration was determined using Pierce BCA Protein Assay Kit (Thermo Fisher Scientific). Protein lysates were separated by electrophoresis (SDS-PAGE) on 8% polyacrylamide gels, then wet-transferred on nitrocellulose membrane and tested proteins were detected in accordance with the instructions of antibody manufacturer.
On the basis of the measurement of chemoluminescence intensity densitometric analysis was performed, results obtained for the cells treated with tested compounds at various concentrations were compared with those obtained for control cells, and IC50 values were determined.
These values were determined with Graph Pad software v. 5.03, by fitting points of the curve using non-linear regression method. Each compound was tested in at least 3 repetitions.
In general terms: In western blotting, separated proteins are transferred to a membrane and probed.

The subject of assay [3] is TNFα secreted by lymphocytes T. Kind of assay: Inhibition of TNFα production by lymphocytes T in vitro. The assay is classed as cell-based. The settings on record: Lymphocyte, 48 hours, human CD4+ lymphocytes T; for inhibition at 0.01 µM: 10 nM; for inhibition at 0.1 µM: 100 nM; for inhibition at 1 µM: 1000 nM. As for the experimental part: as §1, §2, §3

Recombinant kinase JAK2, sequence (O60674 whole entry): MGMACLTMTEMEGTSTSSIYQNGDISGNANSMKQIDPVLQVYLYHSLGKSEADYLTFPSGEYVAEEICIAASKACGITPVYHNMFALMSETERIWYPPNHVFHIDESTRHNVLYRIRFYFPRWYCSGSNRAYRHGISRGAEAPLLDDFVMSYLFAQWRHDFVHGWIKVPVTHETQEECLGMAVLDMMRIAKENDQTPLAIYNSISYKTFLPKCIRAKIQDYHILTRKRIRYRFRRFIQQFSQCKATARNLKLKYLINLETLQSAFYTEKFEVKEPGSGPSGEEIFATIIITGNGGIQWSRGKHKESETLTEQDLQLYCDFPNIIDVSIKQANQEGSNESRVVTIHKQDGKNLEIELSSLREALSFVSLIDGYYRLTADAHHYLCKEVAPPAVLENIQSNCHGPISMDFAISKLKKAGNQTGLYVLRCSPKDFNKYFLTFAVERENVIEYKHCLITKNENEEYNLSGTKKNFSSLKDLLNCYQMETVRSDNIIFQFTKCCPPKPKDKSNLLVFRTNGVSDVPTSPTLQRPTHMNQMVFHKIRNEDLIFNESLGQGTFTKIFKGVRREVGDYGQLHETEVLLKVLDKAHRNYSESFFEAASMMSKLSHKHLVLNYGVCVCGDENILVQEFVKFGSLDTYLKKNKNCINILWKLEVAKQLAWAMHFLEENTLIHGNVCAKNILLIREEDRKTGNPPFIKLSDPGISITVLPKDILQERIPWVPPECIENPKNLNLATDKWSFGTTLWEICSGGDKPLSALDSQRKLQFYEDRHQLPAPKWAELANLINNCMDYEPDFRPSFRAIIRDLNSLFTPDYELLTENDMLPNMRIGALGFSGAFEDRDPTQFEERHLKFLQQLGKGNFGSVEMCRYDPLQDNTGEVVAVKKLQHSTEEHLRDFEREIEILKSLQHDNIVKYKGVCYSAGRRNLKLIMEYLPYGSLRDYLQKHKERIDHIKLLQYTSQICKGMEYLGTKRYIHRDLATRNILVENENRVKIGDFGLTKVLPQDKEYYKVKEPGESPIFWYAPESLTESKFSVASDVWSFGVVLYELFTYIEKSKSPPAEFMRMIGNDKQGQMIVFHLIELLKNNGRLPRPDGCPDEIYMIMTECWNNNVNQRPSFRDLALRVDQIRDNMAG

For the compound `COc1ccc(-c2cc3ncc(C(N)=O)c(N[C@@H]4CCN(c5ccc(C#N)nn5)CC4(C)C)n3n2)cn1` [Example 4, (R)-7-((1-(6-Cyanopyridazin-3-yl)-3,3-dimethylpiperidin-4-yl)amino)-2-(6-methoxy-pyridin-3-yl)pyrazolo[1,5-a]pyrimidine-6-carboxamide], the IC50 (in general, the concentration that inhibits the measured activity by half) on Recombinant kinase JAK2 is 27.7 nM. Also, in assay [1], at 0.01 µM the inhibition was 80.9%; testing at 0.1 µM gave an inhibition of 86.5%; the inhibition (in general, the percentage by which the read-out fell short of the control) at 1 µM came to 95.6%. The compound further came in with an IC50 in assay [2] of 442 nM. In assay [3], this compound displayed an inhibition at 0.01 µM of 57.1%, an inhibition at 0.1 µM of 78.7% and an inhibition at 1 µM of 95.3%.

Take `CC1(C)CN(c2ccc(C#N)nn2)CC[C@H]1Nc1c(C(N)=O)cnc2cc(-c3ccc(N4CCOCC4)nc3)nn12` [Example 7, (R)-7-((1-(6-Cyanopyridazin-3-yl)-3,3-dimethylpiperidin-4-yl)amino)-2-(6-morpholinopyridin-3-yl)pyrazolo[1,5-a]pyrimidine-6-carboxamide]: on Recombinant kinase JAK2, the IC50 turned out to be 3.4 nM. In assay [1], this compound gave an inhibition at 0.01 µM of 73.6%, an inhibition at 0.1 µM of 74.6% and an inhibition at 1 µM of 98.1%. The midpoint of inhibition in assay [2], the IC50, lay at 116 nM. In assay [3], this compound registered an inhibition at 0.01 µM of 60.6%, an inhibition at 0.1 µM of 76% and an inhibition at 1 µM of 98.5%.

Consider `COc1cccc(-c2cc3ncc(C(N)=O)c(N[C@@H]4CCN(c5ccc(C#N)nn5)CC4(C)C)n3n2)n1` [Example 11, (R)-7-((1-(6-Cyanopyridazin-3-yl)-3,3-dimethylpiperidin-4-yl)amino)-2-(6-methoxy-pyridin-2-yl)pyrazolo[1,5-a]pyrimidine-6-carboxamide], for which the IC50 on Recombinant kinase JAK2 came to 1.18 nM; in assay [2], 114 nM. The inhibition at 0.01 µM in assay [1] came to 88.8%; in assay [3], 57.4%. Also, the inhibition at 0.1 µM in assay [1] was 93.5%; in assay [3] it was 88.1%. Also, the values for the inhibition at 1 µM in assay [1] and in assay [3] were 81.4% and 88.5%, respectively.

Consider `Cc1cc(-c2cc3ncc(C(N)=O)c(N[C@@H]4CCN(c5ccc(C#N)nn5)CC4(C)C)n3n2)ccn1` [Example 12, (R)-7-((1-(6-Cyanopyridazin-3-yl)-3,3-dimethylpiperidin-4-yl)amino)-2-(2-methyl-pyridin-4-yl)pyrazolo[1,5-a]pyrimidine-6-carboxamide], for which the IC50 at Recombinant kinase JAK2 amounted to 5.05 nM; in assay [2] it was 150 nM. In addition, the inhibition at 0.01 µM in assay [1] came out at 86.2%; in assay [3] it was 76.2%. For the same compound, the inhibition at 0.1 µM in assay [1] was found to be 88%; in assay [3], 75.8%. The inhibition at 1 µM in assay [1] came to 93%; in assay [3], 95.4%.
